The target of one experiment is T1, Ab HphA (Acinetobacter baumannii, UniProt A0A059ZRB8).
T1 construct: signal peptide omitted, expressed in E. coli cytoplasm, apo-protein
The experiment can be described thus: biochemical. Set-up: UV-visible absorbance titration of porphyrin with protein, 1:1 fit with ligand depletion, 21 C pH 8.0. How it is done:
Hemin binding measurements in absorbance mode were made by successive additions of apo-protein (∼0.4 mM stock) into porphyrin solution (1.5 µM) in 20 mM Tris-HCl, pH 8 at 21°C. All binding experiments were performed at 21°C. Data were fitted to a 1:1 binding model accounting for ligand depletion, where Fobs is fluorescence signal, F0 is the starting [drawing 1] fluorescence, Fsat is a scaling factor for fluorescence at saturation, L and M are the ligand and macromolecule concentrations, respectively, and Kd is the equilibrium dissociation constant. Data were fitted using GNUPLOT version 4.6. […] Here, SSbest is the sum-of-squares for the fit with all parameters floated; Dfn and Dfd are the degrees of freedom in the numerator and denominator, respectively, for calculation of F. The Kd value was then fixed at values above or below the best-fit Kd until fits exceeded the threshold sum-of-squares. To determine a lower limit of Kd that we could expect to fit from absorbance measurements we simulated data for different Kd values with Gaussian noise added to give fits with SSbest that matched our experimental data. […] Titration of hemophilin homologues with hemin. […] A) Spectra recorded after addition of H. haemolyticus Hpl to a final concentration in the range 0.3–4.5 µM. B) Spectra recorded after addition of A. baumannii HphA to a final concentration in the range 0.4–3.8 µM. […]

The target in the next experiment is T2, HrpC (Xn HrpC) (Xenorhabdus nematophila, UniProt D3VG73).
T2 construct: gene XNC1_0075; residues 23-247, signal peptide omitted, His6 tag cut by TEV leaving N-terminal Gly-His-Met, E. coli Rosetta-2, apo-protein by RP-HPLC
Type of experiment: binding. The settings on record: 20 mM Tris-HCl pH 8.0, 21 °C, brackets 95% confidence interval.

In the next experiment the target is T3, Hpl (hemophilin, Hh Hpl) (Haemophilus haemolyticus, UniProt A0A0M3G7Q5).
T3 construct: gene AAX18_03525; signal peptide omitted, expressed in E. coli cytoplasm as previously described, apo-protein by acid acetone; strain BW1 printed for the secretion clone only
The experiment can be described thus: biochemical. The class given is binding.

Another experiment concerns the target T4, CrpC (Xc CrpC) (Xenorhabdus cabanillasii, UniProt A0A3D9UFK6).
T4 construct: gene BDD26_3141; residues 23-238, signal peptide omitted, His6 tag cut by TEV leaving N-terminal Gly-His-Met, E. coli Rosetta-2, apo as purified; HGB2490 is the authors' collection number
Type of experiment: binding. The settings on record: 20 mM Tris-HCl pH 8.0, 21 °C, brackets 95% confidence interval.

The next experiment deals with T5, BSA (Bos taurus, UniProt P02769).
T5 construct: gene ALB
The experiment in a line: UV-visible absorption titration, […] fit. The class given is binding. The settings on record: 20 mM Tris-HCl pH 8.0, 21 °C, brackets 95% confidence interval.

Results on two compounds are retold here after doi:10.1101/2023.03.15.532718v2, “Bacterial hemophilin homologs and their specific type eleven secretor proteins have conserved roles in heme capture and are diversifying as a family” (biorxiv, 2023).

Read-outs that look alike come from different tables or passages of the source.

T2 sequence (D3VG73 entry or part of it): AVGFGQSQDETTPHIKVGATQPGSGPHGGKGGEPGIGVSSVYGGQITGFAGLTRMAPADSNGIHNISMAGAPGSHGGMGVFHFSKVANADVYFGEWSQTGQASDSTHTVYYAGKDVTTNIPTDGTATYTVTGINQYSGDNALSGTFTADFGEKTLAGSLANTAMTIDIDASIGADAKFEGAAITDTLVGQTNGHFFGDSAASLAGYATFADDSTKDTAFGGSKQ
T5 sequence (P02769 25-607): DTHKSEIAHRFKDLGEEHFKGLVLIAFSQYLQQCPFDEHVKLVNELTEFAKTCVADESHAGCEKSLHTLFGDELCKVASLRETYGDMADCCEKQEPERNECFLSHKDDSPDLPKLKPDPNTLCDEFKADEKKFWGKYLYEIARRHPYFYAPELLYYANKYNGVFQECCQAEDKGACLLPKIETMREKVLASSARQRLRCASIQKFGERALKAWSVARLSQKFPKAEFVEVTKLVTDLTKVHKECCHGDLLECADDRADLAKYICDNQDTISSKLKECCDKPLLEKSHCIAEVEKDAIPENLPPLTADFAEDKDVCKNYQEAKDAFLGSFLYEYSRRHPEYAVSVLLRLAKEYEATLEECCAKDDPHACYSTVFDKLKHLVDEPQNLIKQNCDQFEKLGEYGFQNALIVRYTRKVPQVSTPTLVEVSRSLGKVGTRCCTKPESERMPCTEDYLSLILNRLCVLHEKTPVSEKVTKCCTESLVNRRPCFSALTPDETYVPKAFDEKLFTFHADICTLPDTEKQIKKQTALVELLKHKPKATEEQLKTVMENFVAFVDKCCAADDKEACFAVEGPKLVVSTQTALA
T4 sequence (A0A3D9UFK6 entry or part of it): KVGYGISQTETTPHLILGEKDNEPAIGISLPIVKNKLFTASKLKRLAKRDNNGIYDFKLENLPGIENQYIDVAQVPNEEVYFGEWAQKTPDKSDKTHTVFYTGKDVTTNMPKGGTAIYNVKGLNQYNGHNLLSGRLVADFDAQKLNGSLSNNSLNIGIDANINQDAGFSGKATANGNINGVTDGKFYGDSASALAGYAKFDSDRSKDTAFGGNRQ
T1 sequence (A0A059ZRB8 whole entry): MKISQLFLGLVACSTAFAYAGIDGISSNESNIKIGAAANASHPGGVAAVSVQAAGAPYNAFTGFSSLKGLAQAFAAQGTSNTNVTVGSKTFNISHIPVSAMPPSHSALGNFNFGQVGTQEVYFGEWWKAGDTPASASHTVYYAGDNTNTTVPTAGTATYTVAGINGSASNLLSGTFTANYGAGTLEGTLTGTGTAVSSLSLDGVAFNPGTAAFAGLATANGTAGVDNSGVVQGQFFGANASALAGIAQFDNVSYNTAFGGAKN
T3 sequence (A0A0M3G7Q5 entry or part of it): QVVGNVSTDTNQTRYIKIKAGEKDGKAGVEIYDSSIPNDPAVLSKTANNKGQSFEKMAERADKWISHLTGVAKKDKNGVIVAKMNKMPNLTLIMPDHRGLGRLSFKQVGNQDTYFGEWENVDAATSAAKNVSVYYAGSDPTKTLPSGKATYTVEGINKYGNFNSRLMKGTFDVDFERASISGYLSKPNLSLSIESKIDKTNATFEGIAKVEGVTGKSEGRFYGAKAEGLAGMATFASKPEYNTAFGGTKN

For the compound `C=CC1=C(C)c2cc3[nH]c(cc4nc(cc5[nH]c(cc1n2)c(C)c5CCC(=O)O)C(CCC(=O)O)=C4C)c(C)c3C=C` [PPIX], the Kd is not above 15 nM on Ab HphA; 20 nM at HrpC (Xn HrpC); 70 nM at Hpl (hemophilin, Hh Hpl); 7 (3–11) × 10^3 nM on CrpC (Xc CrpC); 11 (6–14) × 10^3 nM on BSA.
On to `C=CC1=C(C)C2=Cc3c(C=C)c(C)c4[n]3[Fe]([Cl])[n]3c(c(C)c(CCC(=O)O)c3=CC3=NC(=C4)C(C)=C3CCC(=O)O)=CC1=N2` [hemin], for which the Kd at HrpC (Xn HrpC) (b21 prints both nM and µM for this value, table nM) was 20 nM; at CrpC (Xc CrpC) (apparent Kd) it was 5 (1–9) × 10^3 nM; on BSA (apparent Kd), 2 (1–5) × 10^3 nM.
